Test results published in patent US20060019855A1, “Composition for a bactericidal, disinfecting, and cleansing foam agent” (priority 2004, published 2006).

Columns and labels:
Assay in all cases: Antibacterial effect test
[1] = tested on: Staphylococcus aureus ATCC25923; format: cell-based; details: for antibacterial effects (in words): S. aureus
Procedure: (§1) Antibacterial Effect Test
(§2) Composition of Example 1: The composition of Example 1 was filled in a pump foamer (manufactured by DAIWA CAN COMPANY).
(§3) Ethanol gel: A hand cleansing gel made by […] CO. LTD. (ethanol content: 70%, formulated with aloe extract).
Staphylococcus aureus ATCC25923
Nutrient Agar (Difco) was employed for S. aureus ATCC25923.
(§4) 1) The respective strains were incubated overnight in TSB at 37° C. The bacterial suspensions were diluted with physiologic saline to have a concentration of approximately 10^4 CFU/ml each.
(§5) 2) Next, 4.5 g each of the test samples were added to dishes (Composition of Example 1 and Control composition were added in a foamed state.). Thereafter, 0.5 ml each of the bacterial suspensions obtained in the process 1) was inoculated thereinto and mixed well. For every combination (12 combinations in total) of the four test samples and the three bacterial suspensions, two sample dishes were prepared in this manner.
(§6) 3) Regarding the first ones of these sample dishes, the number of bacteria was counted immediately after inoculation of the bacterial suspensions, and also after one and two hours of incubation at 37° C. For incubation, the dishes were put in an incubator, with the lids slightly open. To count the number of bacteria of each strain, two agar media were respectively inoculated with 0.1 ml of the bacterial suspension and incubated for 24 hours at 37° C. Later, the number of colonies in both agar media was counted and averaged.
(§7) 4) The second ones of the sample dishes prepared in the process 2) were incubated for two hours at 37° C. after inoculation of the bacterial suspensions. Thereafter, 0.5 ml each of the corresponding bacterial suspensions was again inoculated thereinto and mixed well. The number of bacteria was counted immediately after reinoculation of the bacterial suspensions, and also after one and two hours of incubation at 37° C., in the same manner as in the process 3).
(§8) In Tables 2-4, “B” indicates the theoretical number of bacteria in the mixtures of the bacterial suspensions and the test samples. The symbol “*” indicates reinoculation.

[2] = tested on: Pathogenic E. coli O157:H7 Sakai; format: cell-based, Escherichia coli; details: for number of bacteria: Pathogenic E. coli O157:H7 Sakai; for antibacterial effects (in words): pathogenic E. coli
Procedure: as §1, §2
Ethanol gel: A hand cleansing gel made by FUMAKILLA CO. LTD. (ethanol content: 70%, formulated with aloe extract).
Pathogenic Escherichia coli 0157:H7 Sakai
(§9) MacConkey Agar (Difco) was employed for E. coli FMK1254 and Pathogenic E. coli 0157:H7 SAKAI.
as §4, §5, §6, §7, §8

[3] = tested on: Escherichia coli FMK1254; format: cell-based; details: for antibacterial effects (in words): E. coli
Procedure: as §1, §2, §3, §9, §4, §5, §6, §7, §8

[4] = after two hours of reinoculation

CCO [70% Ethanol, Ethanol]
number of bacteria ([1]; S. aureus ATCC25923, 1 hour at 37° C. after inoculation): ≦9 CFU/ml
number of bacteria ([1]; S. aureus ATCC25923, 1 hour at 37° C. after reinoculation): 75 CFU/ml
number of bacteria ([1]; S. aureus ATCC25923, 2 hours at 37° C. after inoculation): ≦9 CFU/ml
number of bacteria ([1]; S. aureus ATCC25923, 2 hours at 37° C. after reinoculation): 45 CFU/ml
number of bacteria ([1]; S. aureus ATCC25923, immediately after inoculation (0)): ≦9 CFU/ml
number of bacteria ([1]; S. aureus ATCC25923, immediately after reinoculation (0*)): 180 CFU/ml
antibacterial effects (in words) ([1]; after two hours of inoculation): excellent
antibacterial effects (in words) [1, 4]: not sufficient
number of bacteria ([2]; 1 hour at 37° C. after inoculation): ≦9 CFU/ml
number of bacteria ([2]; 1 hour at 37° C. after reinoculation): ≧30000 CFU/ml
number of bacteria ([2]; 2 hours at 37° C. after inoculation): ≦9 CFU/ml
number of bacteria ([2]; 2 hours at 37° C. after reinoculation): ≧30000 CFU/ml
number of bacteria ([2]; immediately after inoculation (0)): ≦9 CFU/ml
number of bacteria ([2]; immediately after reinoculation (0*)): ≧30000 CFU/ml
antibacterial effects (in words) ([2]; after two hours of inoculation): excellent
antibacterial effects (in words) [2, 4]: totally lost
number of bacteria ([3]; E. coli FMK1254, 1 hour at 37° C. after reinoculation): 4095 CFU/ml
number of bacteria ([3]; E. coli FMK1254, 1 hour of incubation at 37° C. after inoculation): ≦9 CFU/ml
number of bacteria ([3]; E. coli FMK1254, 2 hours at 37° C. after reinoculation): 2195 CFU/ml
number of bacteria ([3]; E. coli FMK1254, 2 hours of incubation at 37° C. after inoculation): ≦9 CFU/ml
number of bacteria ([3]; E. coli FMK1254, immediately after inoculation (0)): ≦9 CFU/ml
number of bacteria ([3]; E. coli FMK1254, immediately after reinoculation (0*)): 2280 CFU/ml
antibacterial effects (in words) ([3]; after two hours of inoculation): excellent
antibacterial effects (in words) [3, 4]: totally lost
